In patent US20190062277A1, “FARNESOID X RECEPTOR AGONISTS AND USES THEREOF” (Metacrine, Inc., priority 2015, published 2019):
pEC50: −log10 of the molar value.

Tests used:
[1] = molecular target: T1, FXR (Homo sapiens, UniProt Q96RI1); assay: In Vitro FXR Assay (TK), luciferase reporter in transfected CV-1 cells; format: cell-based; parameters: expressed in transfected cells; host or cells: CV-1 cells; settings: CV-1 cells transfected with hFXR, hRXR, TK-ECRE-luc; 18 hrs incubation; luminescence; maximum efficacy <25% of Fexaramine control also classified '+'
T1 sequence (Q96RI1 1-486): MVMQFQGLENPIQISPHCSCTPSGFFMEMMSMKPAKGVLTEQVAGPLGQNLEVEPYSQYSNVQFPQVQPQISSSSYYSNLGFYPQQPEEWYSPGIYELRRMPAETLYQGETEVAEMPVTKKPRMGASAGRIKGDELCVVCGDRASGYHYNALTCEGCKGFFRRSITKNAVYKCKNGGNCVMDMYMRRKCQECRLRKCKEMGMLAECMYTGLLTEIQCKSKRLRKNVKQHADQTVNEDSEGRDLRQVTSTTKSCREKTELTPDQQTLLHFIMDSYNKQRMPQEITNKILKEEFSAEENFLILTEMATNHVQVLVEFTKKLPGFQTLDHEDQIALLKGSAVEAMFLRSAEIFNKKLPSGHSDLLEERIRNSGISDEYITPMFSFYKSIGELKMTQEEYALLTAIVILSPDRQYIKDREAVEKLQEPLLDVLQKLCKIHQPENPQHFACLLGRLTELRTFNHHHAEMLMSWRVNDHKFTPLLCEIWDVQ
T1 sequence (P19793 1-462 partner): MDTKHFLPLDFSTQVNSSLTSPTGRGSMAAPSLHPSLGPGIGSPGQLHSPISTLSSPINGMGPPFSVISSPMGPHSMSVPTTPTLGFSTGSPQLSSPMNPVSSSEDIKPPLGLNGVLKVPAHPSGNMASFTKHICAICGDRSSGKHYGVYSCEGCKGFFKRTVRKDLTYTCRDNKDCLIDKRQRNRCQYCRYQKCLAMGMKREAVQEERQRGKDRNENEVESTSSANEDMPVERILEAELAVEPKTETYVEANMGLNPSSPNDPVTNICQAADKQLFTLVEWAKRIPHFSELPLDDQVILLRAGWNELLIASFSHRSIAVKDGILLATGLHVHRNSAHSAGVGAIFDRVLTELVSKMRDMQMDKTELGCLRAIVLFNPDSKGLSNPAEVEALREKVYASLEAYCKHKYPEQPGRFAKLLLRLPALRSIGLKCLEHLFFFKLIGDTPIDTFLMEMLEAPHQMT
Procedure: Example B-2: In Vitro FXR Assay (TK)
CV-1 cells were seeded at a density of 2,000,000 cells in a T175 flask with DMEM+10% charcoal double-stripped FBS and incubated at 37° C. in 5% CO2 for 18 h (0/N).
After 18 h of incubation, the medium in the T175 flask was changed with fresh DMEM+10% charcoal super-stripped serum. In a polypropylene tube, 2500 μL OptiMEM (Life Technologies, Cat #31985-062) was combined with expression plasmids for hFXR, hRXR, TK-ECRE-luc and pCMX-YFP. The tube was then briefly vortexed and incubated at room temperature for 5 minutes. Transfection reagent (X-tremeGENE HP from Roche, Cat #06 366 236 001) was added to the OptiMEM/plasmid mixture vortexed and incubated at room temperature for 20 minutes. Following incubation, the transfection reagent/DNA mixture complex was added to cells in the T175 flask and the cells were incubated at 37° C. in 5% CO2 for 18 h (O/N).
Compounds were serially diluted in DMSO and added to transfected CV-1 cells. The cells were then incubated for 18 hrs. The next day cells were lysed and examined for luminescence.

[2] = molecular target: T1, FXR; assay: In Vitro FXR Assay (PGL3), luciferase reporter in transfected CV-1 cells; format: cell-based; parameters: plasmids XPD90Gal pCMXhFXRfl, pCMXhRXRfl+PGL3-ECRE*6-luc+CMX-YFP; expressed in transfected cells; host or cells: CV-1 cells; settings: CV-1 cells transfected with hFXR, hRXR, PGL3-ECRE*6-luc; 18 hrs incubation; luminescence
Procedure: Example B-1: In Vitro FXR Assay (PGL3)
CV-1 cells were seeded at a density of 2,000,000 cells in a T175 flask with DMEM+10% charcoal double-stripped FBS and incubated at 37° C. in a 5% CO2 for 18 h (0/N).
After 18 h of incubation, the medium in the T175 flask was changed with fresh DMEM+10% charcoal super-stripped serum.
To prepare the transfection reaction mixture, the transfection reagent (X-tremeGENE HP from Roche, Cat #06 366 236 001) was added in to a 1.5 mL microcentrifuge tube labelled “A” at a ratio of 1:3 (DNA in μg: transfection reagent in μL). OptiMEM medium (Life Technologies, Cat #31985-062) was added accordingly to provide a total volume of 1 mL. The transfection reaction mixture was then briefly vortexed and incubated at room temperature for 5 minutes.
In a separate 1.5 mL microcentrifuge tube labelled “B”, 100 μL OptiMEM and plasmids XPD90Gal pCMXhFXRfl, pCMXhRXRfl+PGL3-ECRE*6-luc+CMX-YFP in the ratio 2 μg: 2 μg:18 μg:3 μg were added. This microcentrifuge tube “B” was then briefly vortexed and incubated at room temperature for 5 minutes.
The total volume in tube labelled “A” was then transferred in to tube labelled “B.” The mixture was then briefly vortexed and the transfection:DNA complex was then incubated for about 15-20 minutes at room temperature.
Following incubation, the transfection reagent/DNA mixture complex was then added to cells in the T175 flask and the cells were incubated at […] (0/N) at 37° C. in 5% CO2.
In a 96 well plate, a half logarithmic serial dilution was prepared. OptiMEM was used as the diluent. Using any of one of the compounds described herein, a compound stock solution of 10 mM was prepared. An initial 1:100 dilution was made into the first well for a final concentration of 100 μM. The final concentrations in the 96-well plate was prepared by using a multichannel pipette to transfer 5 μL of the diluted compound to 384-well plate in quadruplicate.
Cells in T175 flask were trypsinized and cells were resuspending in 40 mL phenol red free DMEM+10% charcoal super-stripped FBS. Typically, one T175 flask was sufficient to seed two 384 well plates. CV-1 cells were seeded at 45 μL cell suspension/well using a multi-channel pipet or a 384 multidrop dispenser. The cells were then incubated for 18 hrs, overnight.
After removing the plates from the incubator, the medium was flicked out of plate and 384 well plate was turned upside down onto paper towel. The remaining medium was gently tapped out. 15 μL lysis buffer was then added to each well using a multichannel pipet or a 384 well multi-drop dispenser. After incubation for 10 minutes at room temperature on shaker, 30 μL Luciferase buffer was added to each well. Luminescence counts were taken immediately using the Perkin Elmer Envision.
The ability of the compounds disclosed herein to […] FXR activity was quantified and the respective EC50 value was determined. Fex=fexaramine.

SMILES | pEC50 [1] | Cmpd/Fex (ratio of the EC50 for the test compound relative to the EC50 of the Fexaramine control) [2]
COC(=O)/C=C/c1cccc(N(CC2CN(c3ccc(N(C)C)cc3)C2)C(=O)C2CCCCC2)c1 [Compound 4.1, (E)-Methyl 3-(3-(N-((1-(4-(dimethylamino)phenyl)azetidin-3-yl)methyl)cyclohexanecarboxamido)phenyl) acrylate] | ≤ 5.00 | 
COc1ccc([C@H]2CC[C@H](CN(C(=O)C3CCCCC3)c3cccc(/C=C/C(=O)O)c3)CC2)cc1C [Compound 6.1, trans-(E)-3-(3-(N-((4-(4-Methoxy-3-methylphenyl)cyclohexyl)methyl)cyclohexanecarboxamido)phenyl)acrylic acid] | 5.00 to 6.00 | 
COC(=O)/C=C/c1cccc(N(CC2CCN(c3ccc(C)cc3)CC2)C(=O)C2CCCCC2)c1 [Compound 5, (E)-Methyl 3-(3-(N-((1-(p-tolyl)piperidin-4-yl)methyl)cyclohexanecarboxamido)phenyl)acrylate] | ≥ 6.00 | +++ (‘+++’ means Cmpd/Fex <10)
COC(=O)/C=C/c1cccc(N(C[C@H]2CC[C@H](c3ccc(OC)c(C)c3)CC2)C(=O)CC(C)(C)C)c1 [Compound 9, trans-(E)-Methyl 3-(3-(N-((4-(4-methoxy-3-methylphenyl)cyclohexyl)methyl)-3,3-dimethylbutanamido)phenyl)acrylate] | ≥ 6.00 | 
COC(=O)/C=C/c1cccc(N(CC2CCN(c3ccc(N(C)C)cc3)CC2)C(=O)C2CCCCC2)c1 [Compound 2, (E)-Methyl 3-(3-(N-((1-(4-(dimethylamino)phenyl)piperidin-4-yl)methyl)cyclohexanecarboxamido)phenyl)acrylate] | ≥ 6.00 | +++ (‘+++’ means Cmpd/Fex <10)
COc1ccc([C@H]2CC[C@H](CN(C(=O)CC(C)(C)C)c3cccc(/C=C/C(=O)OC(C)C)c3)CC2)cc1C [Compound 11, trans-(E)-Isopropyl 3-(3-(N-((4-(4-methoxy-3-methylphenyl)cyclohexyl)methyl)-3,3-dimethylbutanamido)phenyl)acrylate] | ≥ 6.00 | 
CN(C)c1ccc(N2CCC(CN(C(=O)C3CCCCC3)c3cccc(/C=C/C(=O)O)c3)CC2)cc1 [Compound 6, (E)-3-(3-(N-((1-(4-(Dimethylamino)phenyl)piperidin-4-yl)methyl)cyclohexanecarboxamido)phenyl)acrylic acid] | ≤ 5.00 | + (‘+’ means Cmpd/Fex >100)
COC(=O)/C=C/c1cccc(N(C[C@H]2CC[C@H](c3ccc(OC)c(C)c3)CC2)C(=O)C2CCCCC2)c1 [Compound 8, trans-(E)-Methyl 3-(3-(N-((4-(4-methoxy-3-methylphenyl)cyclohexyl)methyl)cyclohexanecarboxamido)phenyl)acrylate] | ≥ 6.00 | 
COC(=O)/C=C/c1cccc(N(CC2CCC(c3ccc(Cl)cc3)CC2)C(=O)C2CCCCC2)c1 (stereo not drawn) [Compound 7, (E)-Methyl 3-(3-(N-((4-(4-chlorophenyl)cyclohexyl)methyl)cyclohexanecarboxamido)phenyl)acrylate] | ≥ 6.00 | +++ (‘+++’ means Cmpd/Fex <10)
COC(=O)/C=C/c1cccc(N(C[C@H]2CCN(c3ccc(N(C)C)cc3)C2)C(=O)C2CCCCC2)c1 [Compound 4, (S,E)-Methyl 3-(3-(N-((1-(4-(dimethylamino)phenyl)pyrrolidin-3-yl)methyl)cyclohexanecarboxamido)phenyl) acrylate] | 5.00 to 6.00 | ++ (‘++’ means Cmpd/Fex >10 & <100)
COC(=O)/C=C/c1cccc(N(C[C@H]2CC[C@H](c3ccc(OC)c(C)c3)CC2)C(=O)[C@H]2CC[C@H](O)CC2)c1 [Compound 14, trans-(E)-Methyl 3-(3-(trans-4-hydroxy-N-((4-(4-methoxy-3-methylphenyl)cyclohexyl)methyl)cyclohexanecarboxamido)phenyl)acrylate] | ≥ 6.00 | 
COc1ccc([C@H]2CC[C@H](CN(c3cccc(/C=C/C(=O)OC(C)C)c3)C(=O)[C@H]3CC[C@H](O)CC3)CC2)cc1C [Compound 13, trans-(E)-Isopropyl 3-(3-(trans-4-hydroxy-N-((4-(4-methoxy-3-methylphenyl)cyclohexyl)methyl)cyclohexanecarboxamido)phenyl)acrylate] | ≥ 6.00 | 
COC(=O)/C=C/c1cccc(N(C[C@@H]2CCN(c3ccc(N(C)C)cc3)C2)C(=O)C2CCCCC2)c1 [Compound 3, (R,E)-Methyl 3-(3-(N-((1-(4-(dimethylamino)phenyl)pyrrolidin-3-yl)methyl)cyclohexanecarboxamido)phenyl) acrylate] | ≤ 5.00 | + (‘+’ means Cmpd/Fex >100)
COc1ccc([C@H]2CC[C@H](CN(C(=O)C3CCCCC3)c3cccc(/C=C/C(=O)OC(C)C)c3)CC2)cc1C [Compound 10, trans-(E)-Isopropyl 3-(3-(N-((4-(4-methoxy-3-methylphenyl)cyclohexyl)methyl)cyclohexanecarboxamido)phenyl)acrylate] | ≥ 6.00 | 
COC(=O)/C=C/c1cccc(N(C[C@H]2CC[C@@H](c3ccc(OC)c(C)c3)CC2)C(=O)C2CCCCC2)c1 [Compound 12, cis-(E)-Methyl 3-(3-(N-((4-(4-methoxy-3-methylphenyl)cyclohexyl)methyl)cyclohexanecarboxamido)phenyl)acrylate] | ≤ 5.00 | 
